Here are results for 29 molecules from patent US8748426B2, “Inhibitors of diacylglycerol acyl transferase” (Piramal Enterprises Limited, priority 2009, dated 2014).

The assay addresses T1, hDGAT1 (Homo sapiens, UniProt O75907).
T1 sequence (O75907 1-488): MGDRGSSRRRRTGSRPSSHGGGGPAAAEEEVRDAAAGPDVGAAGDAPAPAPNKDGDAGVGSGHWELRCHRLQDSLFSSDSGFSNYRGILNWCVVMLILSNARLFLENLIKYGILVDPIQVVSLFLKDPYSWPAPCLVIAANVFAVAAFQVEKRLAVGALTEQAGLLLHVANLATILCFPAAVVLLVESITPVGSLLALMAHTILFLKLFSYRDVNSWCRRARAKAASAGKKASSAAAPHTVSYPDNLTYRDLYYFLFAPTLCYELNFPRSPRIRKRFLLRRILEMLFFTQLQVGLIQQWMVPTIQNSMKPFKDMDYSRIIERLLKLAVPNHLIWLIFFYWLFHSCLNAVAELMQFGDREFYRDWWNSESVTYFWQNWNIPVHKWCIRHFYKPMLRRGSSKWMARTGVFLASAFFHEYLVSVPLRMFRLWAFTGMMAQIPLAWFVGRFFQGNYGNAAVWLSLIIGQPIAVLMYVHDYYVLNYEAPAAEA
As to the kind of experiment: In-vitro DGAT1 assay (14C oleoyl CoA, hDGAT1 microsomes from Sf9 cells). Particulars: for inhibition at 1 µM: read-out: % Inhibition of hDGAT1; for % Inhibition of hDGAT1: at 1 μM.

Some results are limits rather than exact numbers.

Regarding `CC(C)C[C@@H](C(=O)O)N1Cc2ccc(-c3ccc(NC(=O)Nc4cccc(C(F)(F)F)c4)cc3)cc2C1=O` [Example 352, (S)-4-Methyl-2-(1-oxo-6-(4-(3-(3-(trifluoromethyl)phenyl)ureido)phenyl)isoindolin-2-yl)pentanoic acid], the inhibition (commonly the share of the control response that was lost under treatment) at 1 µM lay within 10 to 50%.

As to `COC[C@@H](C(=O)O)N1Cc2ccc(-c3ccc(NC(=O)Nc4cccc(C(F)(F)F)c4)cc3)cc2C1=O` [Example 355], the “% Inhibition of hDGAT1” value is on record as “+ (10-50% Inhibition)”. Regarding `CC(C)[C@H](C(=O)O)N1Cc2cc(-c3ccc(NC(=O)Nc4cccc(C(F)(F)F)c4)cc3)ccc2C1=O` [Example 361, (R)-3-Methyl-2-(1-oxo-5-(4-(3-(3-(trifluoromethyl)phenyl)ureido)phenyl)isoindolin-2-yl)butanoic acid], the inhibition at 1 µM is 10 to 50%.

For the molecule `O=C(O)CN1Cc2cc(-c3ccc(NC(=O)Nc4cccc(C(F)(F)F)c4)cc3)ccc2C1=O` [Example 364, 2-(1-Oxo-5-(4-(3-(3-(trifluoromethyl)phenyl)ureido)phenyl)isoindolin-2-yl)acetic acid], the inhibition at 1 µM fell in the range of 10 to 50%. On the same count and under the same terms, under `C[C@@H](C(=O)O)N1Cc2cc(-c3ccc(NC(=O)Nc4cccc(C(F)(F)F)c4)cc3)ccc2C1=O` [Example 367, (S)-2-(1-Oxo-5-(4-(3-(3-(trifluoromethyl)phenyl)ureido)phenyl)isoindolin-2-yl)propanoic acid] stands more than 50%; under `O=C(Nc1ccc(-c2ccc3c(c2)CN(C2(C(=O)O)CCCC2)C3=O)cc1)Nc1cccc(C(F)(F)F)c1` [Example 370, 1-(1-Oxo-5-(4-(3-(3-(trifluoromethyl)phenyl)ureido)phenyl)isoindolin-2-yl)cyclopentanecarboxylic acid], 10 to 50%; under `O=C(Nc1ccc(-c2ccc3c(c2)CN([C@H](C(=O)O)c2ccccc2)C3=O)cc1)Nc1cccc(C(F)(F)F)c1` [Example 373, (S)-2-(1-Oxo-5-(4-(3-(3-(trifluoromethyl)phenyl)ureido)phenyl)isoindolin-2-yl)-2-phenylacetic acid], 10 to 50%. With `O=C(O)CCCN1Cc2cc(-c3ccc(NC(=O)Nc4cccc(C(F)(F)F)c4)cc3)ccc2C1=O` [Example 376, 4-(1-Oxo-5-(4-(3-(3-(trifluoromethyl)phenyl)ureido)phenyl)isoindolin-2-yl)butanoic acid], the inhibition at 1 µM fell in the range of 10 to 50%. Take `O=C(O)CCN1Cc2cc(-c3ccc(NC(=O)Nc4cccc(C(F)(F)F)c4)cc3)ccc2C1=O` [Example 379, 3-(1-Oxo-5-(4-(3-(3-(trifluoromethyl)phenyl)ureido)phenyl)isoindolin-2-yl)propanoic acid]: the inhibition at 1 µM fell in the range of 10 to 50%. In the case of `O=C(Nc1ccc(-c2ccc3c(c2)CN([C@@H](Cc2ccccc2)C(=O)O)C3=O)cc1)Nc1cccc(C(F)(F)F)c1` [Example 382, (S)-2-(1-Oxo-5-(4-(3-(3-(trifluoromethyl)phenyl)ureido)phenyl)isoindolin-2-yl)-3-phenylpropanoic acid], the inhibition at 1 µM lay in the range of 10 to 50%. Turning to `COC[C@@H](C(=O)O)N1Cc2cc(-c3ccc(NC(=O)Nc4cccc(C(F)(F)F)c4)cc3)ccc2C1=O` [Example 385, (S)-3-Methoxy-2-(1-oxo-5-(4-(3-(3-(trifluoromethyl)phenyl)ureido)phenyl)isoindolin-2-yl)propanoic acid], the inhibition at 1 µM is 10 to 50%. Take `CC(C)C[C@@H](C(=O)O)N1Cc2cc(-c3ccc(NC(=O)Nc4cccc(C(F)(F)F)c4)cc3)ccc2C1=O` [Example 388, (S)-4-Methyl-2-(1-oxo-5-(4-(3-(3-(trifluoromethyl)phenyl)ureido)phenyl)isoindolin-2-yl)pentanoic acid]: the inhibition at 1 µM was in the range of 10 to 50%. In the case of `CC(C)[C@@H](C(=O)O)N1Cc2ccc(-c3ccc(NC(=O)Nc4ccccc4Cl)cn3)cc2C1=O` [Example 394, (S)-2-(6-(5-(3-(2-Chlorophenyl)ureido)pyridin-2-yl)-1-oxoisoindolin-2-yl)-3-methylbutanoic acid], the inhibition at 1 µM was more than 50%. Regarding `CC(C)[C@@H](C(=O)O)N1Cc2ccc(-c3ccc(NC(=O)Nc4ccc(Cl)cc4Oc4ccccc4)cn3)cc2C1=O` [Example 396, (S)-2-(6-(5-(3-(4-Chloro-2-phenoxyphenyl)ureido)pyridin-2-yl)-1-oxoisoindolin-2-yl)-3-methylbutanoic acid], the inhibition at 1 µM was more than 50%. For `Cc1ccc(NC(=O)Nc2ccc(-c3ccc4c(c3)C(=O)N([C@H](C(=O)O)C(C)C)C4)nc2)cc1C` [Example 398, (S)-2-(6-(5-(3-(3,4-Dimethylphenyl)ureido)pyridin-2-yl)-1-oxoisoindolin-2-yl)-3-methylbutanoic acid], the inhibition at 1 µM is more than 50%. As to `CC(C)[C@@H](C(=O)O)N1Cc2ccc(-c3ccc(NC(=O)Nc4ccc5c(c4)CCC5)cn3)cc2C1=O` [Example 402, (S)-2-(6-(5-(3-(2,3-Dihydro-1H-inden-5-yl)ureido)pyridin-2-yl)-1-oxoisoindolin-2-yl)-3-methylbutanoic acid], the inhibition at 1 µM is more than 50%. In the case of `CC(C)[C@@H](C(=O)O)N1Cc2ccc(-c3ccc(NC(=O)c4ccc(C(C)(C)C)cc4)cn3)cc2C1=O` [Example 404, (S)-2-(6-(5-(4-tert-Butylbenzamido)pyridin-2-yl)-1-oxoisoindolin-2-yl)-3-methyl butanoic acid], the inhibition at 1 µM was more than 50%. Consider `CCCCOc1ccc(C(=O)Nc2ccc(-c3ccc4c(c3)C(=O)N([C@H](C(=O)O)C(C)C)C4)nc2)cc1` [Example 412, (S)-2-(6-(5-(4-Butoxybenzamido)pyridin-2-yl)-1-oxoisoindolin-2-yl)-3-methylbutanoic acid], for which the inhibition at 1 µM is more than 50%.

`CC(C)[C@@H](C(=O)O)N1Cc2ccc(-c3ccc(NC(=O)Nc4ccccc4Cl)cc3C(F)(F)F)cc2C1=O` [Example 416, (S)-2-(6-(4-(3-(2-Chlorophenyl)ureido)-2-(trifluoromethyl)phenyl)-1-oxoisoindolin-2-yl)-3-methylbutanoic acid]: the inhibition at 1 µM was in the range of 10 to 50%.

Take `CC(C)[C@@H](C(=O)O)N1Cc2ccc(-c3ccc(NC(=O)Nc4ccc(F)c(F)c4)cc3C(F)(F)F)cc2C1=O` [Example 418, (S)-2-(6-(4-(3-(3,4-Difluorophenyl)ureido)-2-(trifluoromethyl)phenyl)-1-oxoisoindolin-2-yl)-3-methylbutanoic acid]: the inhibition at 1 µM lay within 10 to 50%. Still for that read-out and setting: the result for `CC(C)[C@@H](C(=O)O)N1Cc2ccc(-c3ccc(NC(=O)Nc4ccc5c(c4)CCC5)cc3C(F)(F)F)cc2C1=O` [Example 420, (S)-2-(6-(4-(3-(2,3-Dihydro-1H-inden-5-yl)ureido)-2-(trifluoromethyl)phenyl)-1-oxoisoindolin-2-yl)-3-methylbutanoic acid] reads 10 to 50%. For the molecule `Cc1ccc(NC(=O)Nc2ccc(-c3ccc4c(c3)C(=O)N([C@H](C(=O)O)C(C)C)C4)c(C(F)(F)F)c2)cc1C` [Example 422, (S)-2-(6-(4-(3-(3,4-Dimethylphenyl)ureido)-2-(trifluoromethyl)phenyl)-1-oxoisoindolin-2-yl)-3-methylbutanoic acid], the inhibition at 1 µM lay within 10 to 50%. On to `CC(C)[C@@H](C(=O)O)N1Cc2ccc(-c3ccc(NC(=O)c4ccc(C(C)(C)C)cc4)cc3C(F)(F)F)cc2C1=O` [Example 424, (S)-2-(6-(4-(4-tert-Butylbenzamido)-2-(trifluoromethyl)phenyl)-1-oxoisoindolin-2-yl)-3-methylbutanoic acid], for which the inhibition at 1 µM was in the range of 10 to 50%. With `CC(C)[C@@H](C(=O)O)N1Cc2ccc(-c3ccc(NC(=O)c4ccc(-c5ccccc5)cc4)cc3C(F)(F)F)cc2C1=O` [Example 426, (S)-2-(6-(4-Biphenyl-4-ylcarboxamido-2-(trifluoromethyl)phenyl)-1-oxoisoindolin-2-yl)-3-methylbutanoic acid], the “% Inhibition of hDGAT1” value is given as “+ (10-50% Inhibition)”. With `CC(C)[C@@H](C(=O)O)N1Cc2ccc(-c3ccc(NC(=O)c4ccc5ccccc5c4)cc3C(F)(F)F)cc2C1=O` [Example 428, (S)-2-(6-(4-(2-Naphthamido)-2-(trifluoromethyl)phenyl)-1-oxoisoindolin-2-yl)-3-methylbutanoic acid], the inhibition at 1 µM lay within 10 to 50%. On to `CCCCCc1ccc(C(=O)Nc2ccc(-c3ccc4c(c3)C(=O)N([C@H](C(=O)O)C(C)C)C4)c(C(F)(F)F)c2)cc1` [Example 430, (S)-3-Methyl-2-(1-oxo-6-(4-(4-pentylbenzamido)-2-(trifluoromethyl)phenyl)isoindolin-2-yl)butanoic acid], for which the inhibition at 1 µM was in the range of 10 to 50%. With `CCCCOc1ccc(C(=O)Nc2ccc(-c3ccc4c(c3)C(=O)N([C@H](C(=O)O)C(C)C)C4)c(C(F)(F)F)c2)cc1` [Example 432, (S)-2-(6-(4-(4-Butoxybenzamido)-2-(trifluoromethyl)phenyl)-1-oxoisoindolin-2-yl)-3-methylbutanoic acid], the inhibition at 1 µM lay in the range of 10 to 50%. On to `Cc1ccc(NC(=O)Nc2ccc(-c3ccc4c(c3)C(=O)N([C@H](C(=O)O)C(C)C)C4)cc2F)cc1C` [Example 436, (S)-2-(6-(4-(3-(3,4-Dimethylphenyl)ureido)-3-fluorophenyl)-1-oxoisoindolin-2-yl)-3-methylbutanoic acid], for which the inhibition at 1 µM is more than 50%.

`CC(C)[C@@H](C(=O)O)N1Cc2ccc(-c3ccc(NC(=O)Nc4ccc5c(c4)CCC5)c(F)c3)cc2C1=O` [Example 438, (S)-2-(6-(4-(3-(2,3-Dihydro-1H-inden-5-yl)ureido)-3-fluorophenyl)-1-oxoisoindolin-2-yl)-3-methylbutanoic acid]: the inhibition at 1 µM was more than 50%.
